Laboratory results reported in patent US20230183193A1, “4-DIFLUOROMETHYL BENZOYL AMIDES WITH HERBICIDAL ACTION” (BAYER CROPSCIENCE AKTIENGESELLSCHAFT, priority 2017, published 2023).

Tests used:
Assay type in all cases: in vivo
Pharbitis purpureum = experiment: Post-emergence herbicidal action, PHBPU; conditions: 80 g/ha, Table D
Procedure, shortened: (§1)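 Herbicidal effect is rated visually as percent versus untreated plants (100% = dead, 0% = like control) about 3 weeks after spraying. Plants were sown in sandy loam in the greenhouse and sprayed on green parts at the one-leaf stage, 2 to 3 weeks post-sowing.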

Stellaria media [1] = experiment: Pre-emergence herbicidal action, STEME; conditions: dosage 320 g/ha, scored visually after 3 weeks vs untreated controls
Procedure, shortened: (§2)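 Weed seeds were laid out in sandy loam and covered with soil, then the soil surface was treated with an aqueous suspension or emulsion of the formulated compound containing 0.2% wetting agent. Pots stayed in the greenhouse for 3 weeks before damage was rated visually against untreated plants.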

Avena fatua [2] = experiment: Pre-emergence herbicidal action, AVEFA; conditions: dosage 320 g/ha, scored visually after 3 weeks vs untreated controls
Procedure, shortened: as §2

Avena fatua [3] = experiment: Post-emergence herbicidal action, AVEFA; conditions: 80 g/ha, Table C
Experimental: (§3) Seeds of monocotyledonous and dicotyledonous weed and crop plants are laid out in sandy loam soil in wood-fiber pots, covered with soil and cultivated in a greenhouse under good growth conditions. 2 to 3 weeks after sowing, the test plants are treated at the one-leaf stage. The compounds of the invention, formulated in the form of wettable powders (WP) or as emulsion concentrates (EC), are then sprayed onto the green parts of the plants in the form of an aqueous suspension or emulsion at a water application rate equating to […], with addition of 0.2% wetting agent. After the test plants have been left to stand in the greenhouse under optimal growth conditions for about 3 weeks, the action of the preparations is assessed visually in comparison to untreated controls (herbicidal action in percent (%): 100% activity=the plants have died, 0% activity=like control plants). […] At the same time, inventive compounds leave Gramineae crops such as barley, wheat, rye, millet/sorghum, corn or rice virtually undamaged when applied post-emergence, even at high active compound dosages. In addition, some substances are also harmless to dicotyledonous crops such as soya, cotton, oilseed rape, sugar beet or potatoes. Some of the compounds according to the invention have high selectivity and are therefore suitable for controlling unwanted vegetation in agricultural crops by the post-emergence method. The data of Tables C and D below illustrate, in an exemplary manner, the […] herbicidal action of the compounds according to the invention, the herbicidal activity being stated in percent.
(§4) For comparison, the herbicidal activity of numerous compounds according to the invention was tested with the structurally closest compounds known from the documents WO 2011/035874, WO 2012/028579 and WO 2012/126932, by the pre- and post-emergence method.

Alopecurus myosuroides [4] = experiment: Pre-emergence herbicidal action, ALOMY; conditions: dosage 320 g/ha, scored visually after 3 weeks vs untreated controls
Procedure, shortened: as §2

Stellaria media [5] = experiment: Post-emergence herbicidal action, STEME; conditions: 80 g/ha, Table D
Procedure, shortened: as §1

Viola tricolor [6] = experiment: Pre-emergence herbicidal action, VIOTR; conditions: dosage 320 g/ha, scored visually after 3 weeks vs untreated controls
Procedure, shortened: as §2

Viola tricolor [7] = experiment: Post-emergence herbicidal action, VIOTR; conditions: 80 g/ha, Table D
Procedure, shortened: as §1

ECHCG = experiment: Post-emergence herbicidal action, ECHCG; conditions: 80 g/ha, Table C
Procedure, shortened: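 Weed and crop plants grown in sandy loam in the greenhouse, treated at the one-leaf stage 2–3 weeks after sowing. Damage scored visually after about 3 weeks vs untreated controls (0% = control, 100% = dead).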

Matricaria inodora = experiment: Pre-emergence herbicidal action, MATIN; conditions: dosage 320 g/ha, scored visually after 3 weeks vs untreated controls
Procedure, shortened: as §2

Amaranthus retroflexus [8] = experiment: Post-emergence herbicidal action, AMARE; conditions: 80 g/ha, Table D
Procedure, shortened: as §1

Abutilon theophrasti [9] = experiment: Post-emergence herbicidal action, ABUTH; conditions: 80 g/ha, Table D
Procedure, shortened: as §1

Alopecurus myosuroides [10] = experiment: Post-emergence herbicidal action, ALOMY; conditions: 80 g/ha, Table C
Experimental: as §3, §4

Setaria viridis [11] = experiment: Post-emergence herbicidal action, SETVI; conditions: 80 g/ha, Table C
Procedure, shortened: as §1

Amaranthus retroflexus [12] = experiment: Pre-emergence herbicidal action, AMARE; conditions: dosage 320 g/ha, scored visually after 3 weeks vs untreated controls
Procedure, shortened: as §2

Abutilon theophrasti [13] = experiment: Pre-emergence herbicidal action, ABUTH; conditions: dosage 320 g/ha, scored visually after 3 weeks vs untreated controls
Procedure, shortened: as §2

Cyperus serotinus = experiment: Pre-emergence herbicidal action, CYPES; conditions: dosage 320 g/ha, scored visually after 3 weeks vs untreated controls
Procedure, shortened: as §2

Setaria viridis [14] = experiment: Pre-emergence herbicidal action, SETVI; conditions: dosage 320 g/ha, scored visually after 3 weeks vs untreated controls
Procedure, shortened: as §2

SMILES | Herbicidal activity PHBPU (Pharbitis purpureum) | Herbicidal activity STEME (Stellaria media [1]) | herbicidal activity AVEFA (Avena fatua [2]) | herbicidal activity AVEFA (Avena fatua [3]) | herbicidal activity ALOMY (Alopecurus myosuroides [4]) | Herbicidal activity STEME (Stellaria media [5]) | herbicidal activity VIOTR (Viola tricolor [6]) | herbicidal activity VIOTR (Viola tricolor [7]) | Herbicidal activity ECHCG (ECHCG) | herbicidal activity MATIN (Matricaria inodora) | herbicidal activity AMARE (Amaranthus retroflexus [8]) | herbicidal activity ABUTH (Abutilon theophrasti [9]) | herbicidal activity ALOMY (Alopecurus myosuroides [10]) | herbicidal activity SETVI (Setaria viridis [11]) | herbicidal activity AMARE (Amaranthus retroflexus [12]) | herbicidal activity ABUTH (Abutilon theophrasti [13]) | herbicidal activity CYPES (Cyperus serotinus) | herbicidal activity SETVI (Setaria viridis [14])
CCS(=O)(=O)c1c(C(F)F)ccc(C(=O)Nc2nnnn2C)c1Cl [Example 1-54] | 100% | 100% | 100% | 100% | 100% | 100% | 100% | 100% | 90% | 100% | 100% | 100% | 90% | 100% | 100% | 100% | 100% | 100%
CCS(=O)(=O)c1c(C(F)F)ccc(C(=O)Nc2ncnn2C)c1Cl [Example 4-54] | 100% | 100% | 80% | 100% | 90% | 100% | 100% | 100% | 100% | 100% | 90% | 90% | 90% | 100% | 100% | 100% | 80% | 90%
CCn1nnnc1NC(=O)c1ccc(C(F)F)c(S(C)(=O)=O)c1C1CC1 [Example 2-27] | 90% | 100% | 100% | 100% | 100% | 100% | 100% | 100% | 100% | 100% | 100% | 100% | 90% | 100% | 100% | 100% | 100% | 100%
CCSc1c(C(F)F)ccc(C(=O)Nc2nnc(C)o2)c1CC [Example 7-14] | 90% | 100% | 100% | 100% | 100% | 100% | 100% | 100% | 90% | 90% | 100% | 100% | 90% | 90% | 100% | 100% | 100% | 100%
CCc1c(C(=O)Nc2nnnn2C)ccc(C(F)F)c1S(C)(=O)=O [Example 1-15] | 90% | 100% | 100% | 100% | 100% | 100% | 100% | 100% | 90% | 100% | 100% | 90% | 90% | 80% | 100% | 100% | 100% | 100%
CC[S+]([O-])c1c(C(F)F)ccc(C(=O)Nc2nnnn2C)c1Cl (stereo not drawn) [Example 1-53] | 100% | 100% | 100% | 100% | 100% | 100% | 100% | 100% | 90% | 100% | 100% | 100% | 100% | 100% | 100% | 100% | 100% | 100%
CCS(=O)(=O)c1c(C(F)F)ccc(C(=O)Nc2nonc2Cl)c1C [Example 6-6] | 100% | 90% | 90% | 80% | 90% | 100% | 100% | 100% | 90% | 100% | 80% | 80% | 80% | 90% | 90% | 100% | 80% | 100%
CCSc1c(C(F)F)ccc(C(=O)Nc2nnnn2C)c1C [Example 1-4] | 100% | 100% | 100% | 100% | 100% | 100% | 100% | 100% | 100% | 100% | 100% | 100% | 90% | 100% | 100% | 100% | 80% | 100%
CCc1c(C(=O)Nc2nnnn2CC)ccc(C(F)F)c1S(C)(=O)=O [Example 2-15] | 80% | 100% | 100% | 100% | 100% | 100% | 100% | 100% | 90% | 100% | 100% | 100% | 80% | 100% | 100% | 100% | 100% | 100%
Cn1nnnc1NC(=O)c1ccc(C(F)F)c(S(C)(=O)=O)c1C1CC1 [Example 1-27] | 90% | 100% | 100% | 100% | 100% | 100% | 100% | 100% | 100% | 100% | 100% | 100% | 100% | 100% | 100% | 100% | 100% | 100%
